We go through 4 compounds from PMC10791743, “Selective CK1α degraders exert antiproliferative activity against a broad range of human cancer cell lines” (Nature Communications, 2024).

Data set [1] concerns panel of 9 human cancer cell lines (HD-MB03, MB004, MB002, MHH-CALL4, MOLM-13, TF-1, HEL, OCI-AML3, AML193). Briefly: Molecular glue library screening, CellTiter-Glo cell viability, 72 h. It is filed as cell-based. Conditions: CTG, dose-response. The method, then:
We screened our molecular glue library (3630 compounds) against a panel of 9 pediatric cancer cell lines to identify molecules displaying cell-selective sensitivities. In addition to the four cell lines we previously described (MB002, MB004, HD-MB03, and MHHCALL-4)[27], we included five additional AML cell lines (MOLM-13, TF-1, HEL, OCI-AML3, and AML193) to cover a broader range of genetic diversity and cancer vulnerabilities. The library screening was performed in high throughput (384-well plates) by incubating the cells with compounds for 72 h and assessing cell viability via CellTiter-Glo (CTG) in a dose–response manner, as reported previously.
The primary screen was performed in 384-well format using the CellTiter Glo (CTG) luminescent cell viability assay (Promega) as previously described. 3630 compounds from the St. Jude proprietary molecular glue library were screened against 9 human cancer cell lines (HD-MB03, MB004, MB002, MHH-CALL4, MOLM-13, TF-1, HEL, OCI-AML3, AML193). Each cell line was cultured in the complete medium recommended by the vendor and seeded in Corning 8804 BC white 384-well assay plates at densities of 1000, 1000, 1500, 7500, 1250, 156, 625, 1250, 1250 cells per well for HD-MB03, MB004, MB002, MHH-CALL4, MOLM-13, TF-1, HEL, OCI-AML, AML193, respectively. After overnight incubation at 37 °C in a humidified 5% CO2 incubator, cells were treated with compounds in dose–response format using a Pintool on a Biomek FX^P Laboratory Automation Workstation (Beckman Coulter). After 72 h of incubation, cell proliferation was assessed using a CellTiter-Glo (CTG) luminescent cell viability assay (Promega) according to the manufacturer’s instructions. Luminescence signal was measured using an EnVision plate reader (PerkinElmer).
In general terms: ATP-based viability assays read luminescence as a measure of living cells.

The subject of a further data set is MOLM-13 cells. The data set is described as follows: MOLM-13 cell viability assay (CTG, 72 h). Format: cell-based, human. Further details: key to Cell viability in MOLM-13 cells / cell viability, dose-response replicate values: % viability = 100 − % activity, normalized to controls. The settings on record: for Cell viability in MOLM-13 cells: Lenalidomide series. The method, then: The primary screen was performed in 384-well format using the CellTiter Glo (CTG) luminescent cell viability assay (Promega) as previously described. […] After overnight incubation at 37 °C in a humidified 5% CO2 incubator, cells were treated with compounds in dose–response format using a Pintool on a Biomek FX^P Laboratory Automation Workstation (Beckman Coulter). […] Luminescence signal was measured using an EnVision plate reader (PerkinElmer). […]
number per well and incubated overnight at 37 °C in a humidified 5 % CO2 incubator. Compounds were transferred to the assay plate from a dose-response plate using a Labcyte Echo 650 Acoustic Liquid Handler (Beckman Coulter , USA). […]
using Promega’s CellTiter-Glo reagent according to the manufacturer’s recommendation.
Luminescence was measured on the Envision plate reader (PerkinElmer, USA). Raw luminescence relative light unit (RLU) values for each compound at each concentration were normalized to obtain % activity using the following equation (1): 100 × [(mean(negctrl) – compound)/(mean (negctrl) – mean (posctrl))]. The % activity was converted to % viability using the following equation (2):
(100 – % activity), and then pooled from replicate experiments prior to fitting. Here, negctrl and posctrl refer to the negative (DMSO) and positive controls (staurosporine) on each plate. Dose-response curves were fit to the Hill equation using the GraphPad Prism (version 10). […]

“And” between values parts separate entries of the source, which are not always exact repeats. Identical values can stand only once.

On to `Cc1ccc(NC(=O)NCc2ccc3c(c2)CN(C2CCC(=O)NC2=O)C3=O)cc1Cl` (centres unmarked) [CC-885], for which, in data set [1], the “Cell viability across the panel of AL and MB cell lines” value (shortened to “Cell viability across the panel”) is recorded as “cytotoxic to all cell lines in the panel”.

Take `O=C1CCC(N2C(=O)c3ccc(NS(=O)(=O)c4ccccc4OC(F)(F)F)cc3C2=O)C(=O)N1` (centres unmarked) [SJ6986]: in data set [1], the “Cell viability across the panel” value is reported as “cytotoxic to all cell lines in the panel”.

Turning to `Nc1cccc2c1CN(C1CCC(=O)NC1=O)C2=O` (centres unmarked) [lenalidomide, reference compound], the “Effect on MOLM-13 cell viability (cytotoxicity)” value in the data set with MOLM-13 cells (CTG 72 h) was “did not show appreciable cytotoxicity”. Moreover, the “Cell viability in MOLM-13 cells” value was 109.633 and 88.9306 and 94.0401 in the data set on MOLM-13 cells (Conc 0.00055545); 93.576 and 90.3639 and 96.1559 with MOLM-13 cells (Conc 0.00166636); 90.3167 and 93.3429 and 87.1 in the data set with MOLM-13 cells (Conc 0.00499909); 104.685 and 79.7406 and 92.7317 in the data set with MOLM-13 cells (Conc 0.0149973); 87.2291 and 84.4121 and 81.9827 with MOLM-13 cells (Conc 0.0449918); 84.7339 and 87.0092 and 84.0481 with MOLM-13 cells (Conc 0.134975). The “Cell viability in MOLM-13 cells” value in the data set on MOLM-13 cells (Conc 0.404926) is 83.6134 and 73.5361 and 80.3173; with MOLM-13 cells (Conc 1.21478), 75.0522 and 81.9691 and 77.2827; in the data set on MOLM-13 cells (Conc 3.64433), 84.7767 and 72.5751 and 71.171. Also, the “Cell viability across the panel” value in data set [1] is “inactive”.

For `Nc1cccc2c1C(=O)N(C1CCC(=O)NC1=O)C2=O` (centres unmarked) [pomalidomide], in data set [1], the “Cell viability across the panel” value is “inactive”.
